# Activity calls are given as the source filed them.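 The calls were made as follows: active = lipid-stain IC50 at or below a set limit, with nuclear-stain toxicity IC50 at least five times higher; inactive = the rest.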
# What was measured:
# TAG = TAG lipid buildup inhibition with viability readout – cell-based, panel, Nile Red and DAPI fluorescence, H9c2, dose response (AID 651630); settings: H9c2 cells, Nile Red TAG fluorescence, oleic acid;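 also: cells exposed to compound overnight before fixation and staining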
# DAPI = assay: as above; settings: H9c2 cells, DAPI nuclear fluorescence (cytotoxicity counter-readout), oleic acid
Structure (SMILES),IC50 (TAG; mean of runs),IC50 (TAG; run 1),IC50 (TAG; run 2),IC50 cytotoxicity (DAPI nuclear signal decrease) (DAPI; mean of runs),IC50 cytotoxicity (DAPI nuclear signal decrease) (DAPI; run 1),IC50 cytotoxicity (DAPI nuclear signal decrease) (DAPI; run 2)
CC1(C)CC(=O)C2=C(C1)Oc1nc3ccccc3cc1C2C(C#N)C#N (stereo not given),17.2 µM (inactive),16.5 µM,17.8 µM,12.7 µM (inactive),11.4 µM,14 µM
O=C1COc2ccc(C(=O)CSc3nc4ccccc4c(=O)n3-c3ccc(Cl)c(Cl)c3)cc2N1,13.8 µM,14.1 µM,13.4 µM,18.1 µM (inactive),18.4 µM,17.8 µM
CCOC(=O)CSc1cccc2cccnc12,> 25 µM (inactive),> 25 µM,> 25 µM,> 25 µM (inactive),> 25 µM,> 25 µM
CCN(C(=O)COC(=O)c1ccc([N+](=O)[O-])o1)c1cccc2ccccc12,–,19.4 µM,> 25 µM,20 µM (inactive),18.1 µM,21.9 µM
O=C(N/N=C/c1ccc2c(c1)OCO2)c1cc(-c2ccncc2)nc2ccccc12,14.7 µM,16.8 µM,12.6 µM,> 25 µM (inactive),> 25 µM,> 25 µM
C=CCN1C(=O)/C(=C2\SC(N3CCOCC3)=NC2=O)c2cc(Br)ccc21,22.4 µM (inactive),22.5 µM,22.4 µM,> 25 µM (inactive),> 25 µM,> 25 µM
COc1cc(C2C(C#N)=C(N)Oc3cc4c(cc32)OCO4)cc(OC)c1OC (stereo not given),–,> 25 µM,3.52 µM,> 25 µM (inactive),> 25 µM,> 25 µM
Cc1nc2c(ccc3nc(NC(=O)Cc4cccc5ccccc45)sc32)s1,13.3 µM,11.5 µM,15.1 µM,> 25 µM (inactive),> 25 µM,> 25 µM
Cc1ccc(/C=N/NC(=O)Cc2c[nH]c3ccccc23)c(C)c1,–,19.8 µM,> 25 µM,> 25 µM (inactive),> 25 µM,> 25 µM
CCOCCC(=O)Nc1ccc2c(c1)c(=O)n(C)n2-c1ccc2ccccc2c1,> 25 µM (inactive),> 25 µM,> 25 µM,> 25 µM (inactive),> 25 µM,> 25 µM
COc1cccc(NC(=O)N2CCc3nc(Nc4ccc(C(C)C)cc4)ncc3C2)c1,2.73 µM,2.94 µM,2.52 µM,–,> 25 µM,> 25 µM
CC(C)C[C@H]1CNC(=S)N1CC1CCCN1C[C@H](CC(C)C)N1C[C@H](CC(C)C)N(CC2CCCCCC2)C1=S (stereo not given in full),> 25 µM (inactive),> 25 µM,> 25 µM,> 25 µM (inactive),> 25 µM,> 25 µM
CCN1CCN(Cc2ccc(NC(=O)c3cc(NC(=O)c4cncc(-c5cccs5)c4)cc(OC)c3)cc2C(F)(F)F)CC1,10.5 µM,12.4 µM,8.55 µM,> 25 µM (inactive),> 25 µM,> 25 µM
COc1ccc(-c2nc(NC(=O)C3CCN(c4nc5ccccc5o4)CC3)sc2C)cc1,13 µM,15.6 µM,10.4 µM,> 25 µM (inactive),> 25 µM,> 25 µM

# Reference: PubChem BioAssay AID651630 (Sanford-Burnham Center for Chemical Genomics, 2012)
